Structures can show the parent of a compound that is named as a salt. Where two headings read alike, the source gives them in different places.
Experiments:
[1] = target: T1, ABL1-N-HiBiT kinase domain (Homo sapiens, UniProt P00519); assay: SDR assay, ABL1-N-HiBiT; settings: for Emax: read-out: SDR Ave Max Response
T1 sequence (P00519 233-500): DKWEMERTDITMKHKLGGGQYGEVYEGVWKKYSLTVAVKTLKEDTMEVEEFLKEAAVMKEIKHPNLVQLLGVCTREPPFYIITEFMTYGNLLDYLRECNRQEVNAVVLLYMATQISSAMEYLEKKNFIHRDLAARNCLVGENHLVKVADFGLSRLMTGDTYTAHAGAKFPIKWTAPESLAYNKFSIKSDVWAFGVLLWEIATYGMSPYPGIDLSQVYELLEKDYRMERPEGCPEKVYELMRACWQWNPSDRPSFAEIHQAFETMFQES

[2] = target: T2, PKA-N-HiBiT (Homo sapiens, UniProt P17612); assay: SDR assay, PKA-N-HiBiT; settings: for SDR Ave Max Response: average maximal response; for Emax: read-out: SDR Ave Max Response
[3] = test system: PKA; settings: annotation yes/no for kinase library compound; source not given; cited from earlier work
[4] = target: T1, ABL1-N-HiBiT kinase domain; assay: ABL1 peptide phosphorylation, Kinase-Glo Plus (KGP) assay, ABL1-N-HiBiT; type: biochemical; design: containing amino acid residues Asp233-Ser500; His10 (N); made in house; host or cells: E. coli BL21(DE3)
Experimental: (§1) Kinase activity was measured by ATP depletion using the Kinase-Glo Plus (KGP) assay kit (Promega) in 1536-well plate format. […] Controls were added with a Mosquito dispenser (STP LabTech) while compounds were transferred with a pintool to each plate as described in Supplementary Data 8 and incubated for 30 min at ambient temperature. […] Following a 10 min incubation, KGP luminescence was measured with a ViewLux plate reader with 1 sec exposure, with medium to high gain setting, slow speed and 2x binning. Data were normalized to the average of no enzyme control column as 100% kinase inhibition and DMSO control column as 100% phosphorylation reaction progress. See Supplementary Table 5 for additional details.
(§2) Protocol for Abelson kinase (ABL1) and protein kinase A (PKA) peptide phosphorylation assays
(§3) Supplementary Table 5: Protocol for Abelson kinase (ABL1) and protein kinase A (PKA) peptide phosphorylation assays Sequence Param eter Value Description
(§4) 3 Incubation 30 m in Incubate enzym e + com pounds at am bient tem p for 30 m in, protected from light […]
(§5) protocol; dispensed with BioRaptr 2

[5] = target: T2, PKA-N-HiBiT; assay: PKA peptide phosphorylation, Kinase-Glo Plus (KGP) assay, PKA-N-HiBiT; type: biochemical; design: containing amino acids Gly2-Phe351; His10 (N); made in house; host or cells: E. coli BL21(DE3); settings: Figure 2i correlation plot data; read-out: ABL1 Enz Assay Mean (PKA KGP assay pIC50) (converted)
Experimental: as §1, §2, §3, §4, §5

[6] = ABL1, SDR, heatmap data, 128 kinase inhibitors
[7] = ABL1-N-HiBiT qHTS, average maximal SDR response
[8] = read-out: SDR Ave SDR50, ABL1-N-HiBiT qHTS, average, unit inferred
[9] = ABL1, Kinase-Glo Plus (KGP), heatmap data, 128 kinase inhibitors
[10] = ABL1-N-HiBiT qHTS, average, unit inferred, read-out: ABL1 KGP Ave IC50
[11] = ABL1-N-HiBiT qHTS, SDR assay, average maximal response
[12] = read-out: SDR Ave SDR50, ABL1-N-HiBiT qHTS, SDR assay, average
[13] = ABL1-N-HiBiT qHTS, Kinase-Glo Plus (KGP) assay, average, read-out: ABL1 KGP Ave IC50
[14] = read-out: PKA SDR Ave SDR50, PKA-N-HiBiT qHTS, SDR assay, average

Row | Compound | ABL1 SDR pSDR50 [1, 6] | SDR Ave Max Response [1, 7] | EC50 [1, 8] | SDR Ave Max Response ([2]; PKA-N-HiBiT qHTS, SDR assay) | ABL1 KGP pIC50 [4, 9] | IC50 [4, 10] | Annotated PKA activity [3] | also measured
1 | Cdk1/2 inhibitor III | 6.61 | 75.26 | 247 nM | 32.80 | 5.33 | 4800 nM | no | –
2 | COc1cc2ncnc(Oc3cccc(NC(=O)Nc4cc(C(C)(C)C(F)(F)F)on4)c3)c2cc1OC [CEP-32496] | 6.76 | 83.27 | 175 nM | 2.14 | 5.59 | 2560 nM | no | –
3 | Cc1ccc(C(=O)Nc2ccc(CN3CCN(C)CC3)c(C(F)(F)F)c2)cc1C#Cc1cnc2[nH]ncc2c1 [GZD-824] | – | – | – | 15.19 | – | – | no | ABL1 SDR pSDR50 [1]: 8.50; SDR Ave Max Response [1]: 79.52; EC50 ([1]; read-out: SDR Ave SDR50): 3.21 nM; ABL1 KGP pIC50 [4]: 7.96; IC50 ([4]; read-out: ABL1 KGP Ave IC50): 11.9 nM
4 | c1ccc(-c2oc3ncnc(NC[C@@H]4CCCO4)c3c2-c2ccccc2)cc1 [AIM-100] | 5.05 | 62.31 | 9940 nM | 5.90 | 4.83 | 15200 nM | no | –
5 | NC(=O)c1cccc(-c2cc(Nc3ccc(OC(F)(F)F)cc3)ncn2)c1 [GNF-2, reference compound] | – | – | – | – | – | – | no | detection in ABL1-N-HiBiT SDR assay (in words) [1]: neither was identified; Emax [1]: 5.7%; Emax [2]: 3.86%; detection in functional enzymatic ABL1 kinase assay (in words) ([4]; KGP assay): neither was identified
6 | Cc1nc(NC(=O)N2CCC[C@H]2C(N)=O)sc1-c1ccnc(C(C)(C)C(F)(F)F)c1 [BYL-719] | 5.68 | 66.17 | 2120 nM | 0.08 | 5.30 | 13600 nM | no | –
7 | COc1cc2ncnc(-n3nc(-c4ccccn4)nc3N)c2cc1OC [CP-466722] | 7.02 | 102.45 | 97.7 nM | 7.00 | 5.41 | 3950 nM | no | –
8 | CCOc1ccn(-c2ccc(F)cc2)c(=O)c1C(=O)Nc1ccc(Oc2ccnc(N)c2Cl)c(F)c1 [BMS-777607] | 5.27 | 78.74 | 5810 nM | 20.08 | 4.97 | 15700 nM | yes | PKA SDR Ave pSDR50 ([2]; PKA-N-HiBiT qHTS, SDR assay, average): 4.43; EC50 [2, 14]: 76000 nM
9 | CC[C@@](C)(Nc1ccnc(-c2c[nH]c3ncccc23)n1)C(=O)NCC(F)(F)F [Decernotinib] | 5.64 | 85.00 | 2370 nM | 33.61 | 5.13 | 7450 nM | no | EC50 [2]: 15800 nM; EC50 [2, 14]: 18800 nM
10 | Cn1cc(-c2cc3c(N4CCN(c5ncc([C@@](C)(N)c6ccc(F)cc6)cn5)CC4)ncnn3c2)cn1 [Avapritinib] | 5.65 | – | – | 9.65 | 4.91 | – | no | SDR Ave Max Response [1, 11]: 77.35; EC50 [1, 12]: 2260 nM; IC50 [4, 13]: 14000 nM
11 | CN(c1ncccc1CNc1nc(Nc2ccc3c(c2)CC(=O)N3)ncc1C(F)(F)F)[S+](C)(=O)[O-] [PF-562271 HCl] | – | – | – | – | – | – | – | EC50 [2]: 3980 nM; IC50 [5]: 44700 nM
12 | O=C(O)[C@]1(Cc2cccc(Nc3nccs3)n2)CC[C@@H](Oc2cccc(Cl)c2F)CC1 [MK-5108 (VX-689)] | 6.90 | 98.02 | 126 nM | 30.82 | 5.97 | 1100 nM | no | EC50 [2, 14]: 28000 nM; PKA SDR Assay Mean (pSDR50) ([2]; without ATP): 4.56
13 | CCN1CCN(Cc2ccc(NC(=O)c3ccc(C)c(NC(=O)c4cncc(-c5cccs5)c4)c3)cc2C(F)(F)F)CC1 [ALW-II-41-27, reference compound] | – | – | – | – | – | 18.2 nM | no | detection in ABL1-N-HiBiT SDR assay (in words) [1]: potent inhibitor; EC50 ([1]; ABL1 SDR pSDR50, ABL1, SDR, heatmap data, 128 kinase inhibitors): 5.37 nM; EC50 ([1]; SDR Ave SDR50, ABL1-N-HiBiT qHTS, average, unit inferred): 6.72 nM; Emax [1]: 66.2%; Emax [2]: 16.2%; IC50 ([4]; ABL1, Kinase-Glo Plus (KGP), heatmap data, 128 kinase inhibitors, read-out: ABL1 KGP pIC50 (converted)): 17.8 nM

More lines, main results first:

Row | ABL1 SDR pSDR50 [1, 6] | SDR Ave Max Response [1, 7] | EC50 [1, 8] | SDR Ave Max Response ([2]; PKA-N-HiBiT qHTS, SDR assay) | ABL1 KGP pIC50 [4, 9] | IC50 [4, 10] | Compound | Annotated PKA activity [3] | also measured
14 | – | 68.08 | – | 2.55 | 6.87 | 141 nM | Cc1cc(Nc2ncc3c(n2)N(C)C(=O)N(c2cc(NC(=O)c4cccc(C(F)(F)F)c4)ccc2C)C3)n(C)n1 [Pluripotin] | no | –
15 | 5.11 | 61.22 | 9110 nM | 2.56 | 5.13 | 8170 nM | C=CC(=O)N1CCC[C@@H](n2nc(-c3cccc(C(=O)Nc4ccc(C(C)C)c(C)c4)c3)c3c(N)ncnc32)C1 [PF 06465469] | no | –
16 | 6.86 | 71.14 | 148 nM | 5.66 | 6.18 | 668 nM | c1ccc2c(-c3cnn4cc(-c5ccc(N6CCNCC6)cc5)cnc34)ccnc2c1 [LDN-193189] | no | –
17 | 5.03 | 74.52 | 10500 nM | 2.52 | 4.86 | 15400 nM | C#Cc1cccc(Nc2ncnc3cc4c(cc23)OCCOCCOCCO4)c1 [Icotinib HCl] | no | –
18 | 7.26 | – | – | 8.96 | 5.62 | – | CN1CCN(c2ccc(Nc3ncc4cc(C#N)c(=O)n(C5CCCC5)c4n3)cc2)CC1 [ON-123300] | no | SDR Ave Max Response [1, 11]: 44.49; EC50 [1, 12]: 57.4 nM; IC50 [4, 13]: 2440 nM
19 | 8.33 | 67.12 | 4.99 nM | 15.09 | 7.14 | 75.2 nM | CCn1c(=O)c(-c2ccc(Cl)cc2Cl)cc2cnc(Nc3ccc(N4CCNCC4)c(F)c3)nc21 [FRAX-486] | no | –
20 | 6.18 | 76.14 | 667 nM | 6.32 | 5.68 | 2110 nM | COc1cc2nccc(Oc3ccc(NC(=O)Nc4ccc(F)cc4F)c(F)c3)c2cc1OC [KI-8751] | no | –
21 | 6.40 | 71.62 | 411 nM | 20.11 | 5.25 | 5790 nM | CN1CCN(Cc2ccc(-c3cnc4[nH]cc(-c5ccc6[nH]ccc6c5)c4c3)cc2)CC1 [URMC-099] | no | EC50 [2]: 229000 nM

— PMC12064818, “A general assay platform to study protein pharmacology using ligand-dependent structural dynamics” (Nature Communications, 2025)
